Measured values: article PMC7404270, “Biological Activities of Cyclic and Acyclic B-Type Laxaphycins in SH-SY5Y Human Neuroblastoma Cells” (Marine Drugs, 2020)
pIC50: −log10 of the molar value. Starred links: 1 amine or outer side, 2 acyl side, 3 side chain; linkers in the order of their positions; H or OH if unused. Non-standard residues stand in square brackets, D forms with d. Residues, ends and D or L forms follow the SMILES beside them. dβ3hGly(nHeptyl) = CCCCCCC[C@H](CC(=O)[*:2])N[*:1]; dAsn(3R-OH) = NC(=O)[C@H](O)[C@@H](N)C(=O)O; dLeu(3S-OH) = CC(C)[C@H](O)[C@@H](N)C(=O)O; Hyp = O=C(O)[C@@H]1C[C@@H](O)CN1; NMeI = CC[C@H](C)[C@H](NC)C(=O)O

Tests used:
mTOR = assay: Western blot, mTOR activation (phosphorylated/total); type: cell-based, human; conditions: SH-SY5Y cells, 24 h; Rap 0.1 µM
Experimental: (§1) SH-SY5Y cells were seeded in 12-well plates and treated with laxaphycins for 24 h. Next, cells were washed with PBS and lysis buffer (50mM Tris HCl, 150 mM NaCl, 1mM EDTA and 1% Triton x-100, supplemented with a complete phosphatase/protease inhibitor cocktail) was added to each well. Cells were scrapped, sonicated and centrifuged at 13,000 rpm at 4 °C for 20 min.
(§2) In both cases, the supernatant was collected as the cytosolic fraction and quantified with the Bradford method. Samples containing 15 µg were used for electrophoresis, resolved in 4–20% sodium dodecyl sulphate polyacrylamide gel (Biorad, Madrid, Spain). Proteins were transferred to PVDF membranes (Merck Millipore) with a Trans-Blot® semi-dry transfer cell (Biorad). Membrane blocking and antibody incubation was performed in Snap i.d. system (Merck Millipore). Protein bands were detected with Supersignal West Pico Luminiscent Substrate and Supersignal West Femto Maximum Sensitivity Substrate (Thermo Fisher Scientific). Chemiluminiscence was determined with Diversity GeneSnap system and software (Syngene). LC3 II/I was detected with the primary antibody anti-LC3 II/I (1:1000, Abcam), the primary antibody anti-pmTOR (Ser2448) (1:1000, Merck Millipore) was used to recognize phospho-mTOR and the total levels of the kinase were determined with anti-mTOR antibody (1:10000, Abcam), beclin-1 was detected with anti-beclin-1 primary antibody (1:1000, Merck Millipore), p62 was quantified with anti-p62 antibody (1:1000, Merck Millipore), anti-phospho-p70 S6 kinase (Thr389) (1:1000, Merck Millipore) was used to detect phospho- p70 and the total levels were quantified using anti-p70 S6 kinase antibody (1:1000, Merck Millipore), anti-phospho-AMPK (Thr172) (1:500, Merck Millipore) was used to recognize the phosphorylated state of the kinase, and the total expression of the enzyme was detected with anti-AMPK antibody (1:500, Merck Millipore). Protein levels were normalized using β-Actin (1:20,000, Millipore). Baf A1 (0.001 µM), Rap (0.1 µM) and Comp C (1 µM) were used as controls for autophagic flux measurements. […]

[1] = test system: panel of cancer cell lines; conditions: read-out: IC50, cytotoxic effects against a panel of cancer cell lines; previous works; cited from earlier work
Text: (§3) Moreover, this study is the first description of the effects on mitochondria and autophagy produced by acyclic B-type laxaphycins, and also confirms that the toxic effects of cyclic laxaphycins B are mediated by an apoptotic process. […] Our results in neuroblastoma cells are in ag ...

caspase 3 = assay: Caspase 3 activity in cell lysates (EnzCheck kit); type: cell-based, human; conditions: SH-SY5Y cells, 24 h; 1 at 0.3 µM, 2 at 0.15 µM
Experimental: The detection of caspase 3 activity was carried out with the EnzCheck® Caspase-3 Assay Kit. Neuroblastoma cells were cultured in 12-well plates at 1 × 10^6 cells per well and treated with compounds. After 24 h, cells were lysed and an aliquot was collected to quantify protein concentration by the Bradford method. Then, the assay was performed following manufacturer’s instructions. Briefly, 50 µL of each sample were mixed with equal volume of Z-DEVD-AMC substrate and incubated for 30 min at room temperature. Then, fluorescence at 342 nm excitation and 441 nm emission was measured. Caspase 3 activity data were corrected by protein concentration values. STS (0.01 µM) was used as positive control.

[2] = test system: drug-sensitive and multidrug-resistant tumor cell lines; set-up: method as in PMID 17323939; conditions: previous works; read-out: IC50, toxicity towards drug-sensitive and multidrug-resistant tumor cell lines; cited from earlier work
Text: as §3

[3] = test system: SH-SY5Y human neuroblastoma cells; assay: Annexin V-FITC / propidium iodide flow cytometry; type: cell-based; conditions: 24 h, 1 at 0.3 µM; for Cell survival (flow cytometry): 2 at 0.15 µM (MTT IC50 values); for Apoptotic cells (early and late, Annexin V positive): 2 at 0.15 µM, STS at 0.01 µM, percentage of total cells, mean ± SEM of three experiments
Experimental: The Annexin V-FITC Apoptosis Detection Kit was used to determine the cell death produced by compounds as previously described. SH-SY5Y cells were seeded in 12-well plates at 1 × 10^6 per well and incubated for 24 h with laxaphycins. Then, cells were washed with PBS and resuspended in Annexin binding buffer containing Annexin V-FITC and PI. Cells were incubated for 15 min at room temperature, resuspended in PBS and filtered. The fluorescence was determined by flow cytometry using the ImageStreamMKII (Amnis Corporation, Luminex Corp, Austin, TX, USA). 10,000 events were analyzed with IDEAS Application 6.0 software (Amnis Corporation, Luminex Corp, Austin, TX, USA). STS (Sigma Aldrich) at 0.01 µM was used as control in this assay.

[4] = test system: SH-SY5Y human neuroblastoma cells; assay: LDH cytotoxicity assay (cell viability); type: cell-based; conditions: 24 h, 0.001–10 µM
Experimental: (§4) SH-SY5Y human neuroblastoma cell line was obtained from American Type Culture Collection (ATCC), number CRL2266. Cells were cultured in Dulbecco´s modified Eagle´s medium: Nutrient Mix F-12 (DMEM/F-12) with 10% fetal bovine serum (FBS), 1% glutamax, 100 U/mL penicillin and 100 µg/mL streptomycin. Cells were maintained at 37 °C in a humidified atmosphere of 5% CO2 and 95% air and dissociated weekly using 0.05% trypsin/EDTA. All the reagents were obtained from Thermo Fischer Scientific.
Cell viability was assessed with the LDH test. Cells were seeded in 96-well plates and exposed to different compound concentrations (0.001–10 µM). Cells were incubated with compounds at 37 °C in humidified 5% CO2/95% air atmosphere for 24 h. Quillaja bark saponin was used as cellular death control. Then, cell medium was collected and LDH release was evaluated. Pierce^TM LDH-Cytotoxicity Assay Kit (Thermo Fisher Scientific) was used for LDH determination. Absorbance was measured at 490 nm to determine LDH release to the medium. Experiments were carried out in triplicate at least three independent times.

[5] = test system: SH-SY5Y human neuroblastoma cells; assay: MTT cell metabolic activity assay; type: cell-based; conditions: 24 h, 0.001–10 µM, absorbance 595 nm, three experiments in triplicate
Experimental: as §4
The effect of laxaphycins on cell metabolic activity was evaluated by MTT (3-(4, 5-dimethyl thiazol-2-yl)-2, 5-diphenyl tetrazolium bromide) assay. SH-SY5Y cells were cultured in 96-well plates and treated with compounds at concentrations ranging from 0.001 to 10 µM for 24 h. Next, cells were rinsed three times and incubated for 1 h with MTT (500 µg/mL) dissolved in saline buffer. MTT excess was washed and cells were disaggregated with 5% sodium dodecyl sulfate. Absorbance of the colored formazan salt was measured at 595 nm in a spectrophotometer plate reader. Cell death control signal was subtracted from the other data.

p70 S6 kinase = assay: Western blot, p70 S6 kinase activation (phosphorylated/total); type: cell-based, human; conditions: SH-SY5Y cells, 24 h; one range given for the three compounds together
Experimental: as §1, §2

SMILES | mTOR activation (phospho/total), in words (mTOR) | pIC50 [1] | Increase in caspase 3 activity (caspase 3) | pIC50 [2] | Cell survival (flow cytometry) [3] | Apoptotic cells (early and late, Annexin V positive) [3] | Cytotoxicity / cell viability (LDH test), in words [4] | pIC50 [5] | p70 S6 phosphorylation (p70 S6 kinase)
CCCCCCC[C@@H]1CC(=O)N[C@@H](C(C)C)C(=O)N[C@H]([C@@H](O)C(C)C)C(=O)N[C@@H](C)C(=O)N[C@H]([C@@H](O)C(C)C)C(=O)N[C@@H](CCC(N)=O)C(=O)N(C)[C@@H]([C@@H](C)CC)C(=O)N[C@H]([C@@H](O)C(N)=O)C(=O)N[C@@H]([C@@H](C)O)C(=O)N2CCC[C@H]2C(=O)N[C@H](CC(C)C)C(=O)N[C@@H]([C@@H](C)O)C(=O)N1 [compound 1, laxaphycin B] (cyclo([dβ3hGly(nHeptyl)]V[dLeu(3S-OH)]A[dLeu(3S-OH)]Q[NMeI][dAsn(3R-OH)]TP[dL]T)) | did not affect to the protein expression | > 5.70 | about 20 % of control cells | ~6.00 | around 60 % of control cells | 50.4% ± 4.8% | cytotoxic to neuroblastoma cells | 6.52 | 
CCCCCCC[C@@H]1CC(=O)N[C@@H](C(C)C)C(=O)N[C@H]([C@@H](O)C(C)C)C(=O)N[C@@H](C)C(=O)N[C@H]([C@@H](O)C(C)C)C(=O)N[C@@H](CCC(N)=O)C(=O)N(C)[C@@H]([C@@H](C)CC)C(=O)N[C@H]([C@@H](O)C(N)=O)C(=O)N[C@@H]([C@@H](C)O)C(=O)N2C[C@H](O)C[C@H]2C(=O)N[C@H](CC(C)C)C(=O)N[C@@H]([C@@H](C)O)C(=O)N1 [compound 2, laxaphycin B3] (cyclo([dβ3hGly(nHeptyl)]V[dLeu(3S-OH)]A[dLeu(3S-OH)]Q[NMeI][dAsn(3R-OH)]T[Hyp][dL]T)) | did not affect to the protein expression |  | about 20 % of control cells | ~6.00 | around 60 % of control cells | 46.4% ± 4.8% | cytotoxic to neuroblastoma cells | 6.82 | 53.5%–78.6%
